For the assay, the target named is T1, Mitochondrial import inner membrane translocase subunit TIM10 (Saccharomyces cerevisiae (strain ATCC 204508 / S288c), UniProt P87108).
T1 sequence (P87108 whole entry): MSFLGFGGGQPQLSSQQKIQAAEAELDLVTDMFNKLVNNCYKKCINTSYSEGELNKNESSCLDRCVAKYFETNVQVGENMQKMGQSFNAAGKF
Briefly: inhibitors in tim10-1 mutant yeast luminescence, dose response, counter-screen for tim23-1 inhibitor project, S. cerevisiae, uHTS hits (AID 504657). (In general: The purpose of a counterscreen is to sort out artefacts and off-target activity.)

Each structure is given as a SMILES string.

In general, IC50 refers to the concentration that inhibits the measured activity by half. Compound `O=C1c2ccccc2-c2n[nH]c3cccc1c23` returned an IC50 of more than 100 µM.
Under `C(=CN=Nc1nc2ccccc2[nH]1)Cc1ccccc1` [MLS000390936] stands more than 100 µM; under `Cc1ccc2nc(-n3c(O)c[nH]c3=S)sc2c1`, more than 100 µM; under `Oc1ccccc1C1=NNC(c2ccccc2)S1` (stereo not given) [MLS001212798], more than 100 µM.
Under `COC(=N)C(C#N)N=Cc1ccccc1Cl` (stereo not given) [(E)-3-amino-2-[(2-chlorophenyl)methylideneamino]-3-methoxy-2-propenenitrile] stands more than 100 µM.

These data come from BindingDB's records for doi:10.7270/Q2JQ0ZH4 (Burnham Center For Chemical Genomics, 2011).
